According to patent US7179604B2, “Methods of use of DNA encoding a human histamine receptor of the H3 subtype” (Ortho-McNeil Pharmaceutical, Inc., priority 1998, dated 2007):

Target: T1, human histamine H3 receptor (Homo sapiens, UniProt Q9Y5N1, E19D)
T1 construct: achieved by transfection of full-length human histamine H3 receptor cDNA into a mammalian host cell; expressed in transfected cells; membrane preparation
Experiment: Saturation binding of [3H]-N-alpha-methylhistamine to membranes of pH3R expressing L cells
Settings: recombinant receptor in L cells, FIG. 7, radioligand 0.01 nM-25 nM, room temperature 45 minutes
Description: Binding Assay on Recombinant Human Histamine H3 Receptor L cells that inhibited forskolin-stimulated cAMP accumulation as described above were grown in 150 cm2 tissue culture dishes. Cells were washed with saline solution, scraped with a cell scraper and collected by centrifugation (1000 rpm, 5 min). L cells expressing human histamine H3 receptor bound ^3H—N-alpha-methylhistamine with high affinity (FIG. 7). Cell membranes were prepared by homogenization of the cell pellet in 20 mM TRIS-HCl with a polytron tissue homogenizer for 10 seconds at high speed. Homogenate was centrifuged at 1000 rpm for 5 minutes at 4° C. The supernatant was then collected and centrifuged at 20,000×g for 25 minutes at 4° C. The final pellet is resuspended in 50 mM Tris-HCl. Cell membranes were incubated with ^3H—N-alpha-methylhistamine (0.01 nM–25 nM) in the presence or absence of excess histamine (10000 nM). Incubation was done at room temperature for 45 minutes. Membranes were harvested by rapid filtration over Whatman GF/C filters and washed 4 times with ice cold 50 mM TRIS HCl. Filters were then dried, mixed with scintillant and counted for radioactivity. […]

T1 sequence (Q9Y5N1 whole entry E19D): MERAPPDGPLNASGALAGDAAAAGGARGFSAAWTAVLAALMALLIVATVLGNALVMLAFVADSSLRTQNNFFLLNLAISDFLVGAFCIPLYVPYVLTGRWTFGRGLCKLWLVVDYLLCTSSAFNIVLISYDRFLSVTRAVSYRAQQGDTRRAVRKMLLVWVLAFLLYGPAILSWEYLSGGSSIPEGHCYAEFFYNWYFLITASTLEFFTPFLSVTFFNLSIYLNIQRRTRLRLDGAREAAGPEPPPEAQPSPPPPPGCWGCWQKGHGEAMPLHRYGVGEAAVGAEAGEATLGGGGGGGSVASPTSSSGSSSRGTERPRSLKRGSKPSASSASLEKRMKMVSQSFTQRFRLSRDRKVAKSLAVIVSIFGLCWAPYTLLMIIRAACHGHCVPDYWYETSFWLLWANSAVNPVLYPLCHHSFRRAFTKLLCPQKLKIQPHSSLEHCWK

[3H]CNCCc1cnc[nH]1 [^3H—N-alpha-methylhistamine]
affinity of binding to L cells expressing human histamine H3 receptor: high affinity
